What follows are molecules tested on Toledo cells (assay: Cell proliferation assay, Toledo cells (MTS, 72 h)). Conditions: Homo sapiens, Toledo cells, MTS, read-out: Toledo IC50.
Assay type: cell-based
Procedure, shortened: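 IC50 was derived from 490 nm absorbance after a 2 h MTS step. Before that, compounds at 1.5–10000 nM final (nine points) acted on Toledo cells for 72 h at 37 °C, 5% CO2. Cells were seeded at 30000/well in 10% FBS RPMI-1640 and rested 4 h before dosing.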

SMILES | IC50
COc1nc2[nH]ccc2cc1Oc1cc(N2CCC3(CC2)CC(N2CCOC[C@H]2c2ccccc2C(C)C)C3)ccc1C(=O)NS(=O)(=O)c1cnc(NC[C@H]2CC[C@](C)(O)CC2)c([N+](=O)[O-])c1 (single isomer, unassigned) [Example A-125, N-((6-((((1r,4r)-4-hydroxy-4-methyl-cyclohexyl)methyl)amino)-5-nitropyridin-3-yl)sulfonyl)-4-(2-((R or S)-3-(2-isopropylphenyl)morpholino)-7-azaspiro[3.5]nonan-7-yl)-2-((6-methoxy-1H-pyrrolo[2,3-b]pyridin-5-yl)oxy)benzamide] | 2 nM
COC(=O)N1CCN(C2CC3(CCN(c4ccc(C(=O)NS(=O)(=O)c5cc6c(c([N+](=O)[O-])c5)N[C@@H]([C@H]5CC[C@](C)(O)CC5)CO6)c(Oc5cnc6[nH]cc(F)c6c5)c4)CC3)C2)[C@H](c2ccccc2C(C)C)C1 (single isomer, unassigned) [Example D-144, methyl (R or S)-4-(7-(3-((3-fluoro-1H-pyrrolo [2,3-b]pyridin-5-yl)oxy)-4-((S)-3-((1r,4S)-4-hydroxy-4-methylcyclohexyl)-5-nitro-3,4-dihydro-2H-benzo[b][1,4]oxazin-7-yl)sulfonyl)carbamoyl)phenyl)-7-azaspiro[3.5] nonan-2-yl)-3-(2-isopropylphenyl) piperazine-1-carboxylate] | 1 nM
CC(C)c1ccccc1[C@@H]1CCC[C@@H]1N1CC2(CCN(c3ccc(C(=O)NS(=O)(=O)c4ccc(NC[C@H]5CC[C@](C)(O)CC5)c([N+](=O)[O-])c4)c(Oc4cc5cc[nH]c5nc4OC4COC4)c3)CC2)C1 (single isomer, unassigned) [Example D-115, N-((4-((((1r,4r)-4-hydroxy-4-methylcyclohexyl)methyl)amino)-3-nitrophenyl)sulfonyl)-4-(2-((1S,2S or 1R,2R)-2-(2-isopropylphenyl)cyclopentyl)-2,7-diazaspiro[3.5]nonan-7-yl)-2-((6-(oxetan-3-yloxy)-1H-pyrrolo[2,3-b]pyridin-5-yl)oxy) benzamide] | 1 nM
CC(=O)N1CCN(C2CC3(CCN(c4ccc(C(=O)NS(=O)(=O)c5cc6c(c([N+](=O)[O-])c5)N[C@@H]([C@H]5CC[C@](C)(O)CC5)CO6)c(Oc5cnc6[nH]cc(F)c6c5)c4)CC3)C2)[C@H](c2ccccc2C(C)C)C1 (single isomer, unassigned) [Example D-140, 4-(2-((R or S)-4-acetyl-2-(2-isopropylphenyl)piperazin-1-yl)-7-azaspiro[3.5]nonan-7-yl)-2-((3-fluoro-1H-pyrrolo [2,3-b]pyridin-5-yl)oxy)-N-(((S)-3-((1r,4S)-4-hydroxy-4-methylcyclohexyl)-5-nitro-3,4-dihydro-2H-benzo[b][1,4]oxazin-7-yl)sulfonyl)benzamide] | 1 nM
CC(C)c1ccccc1[C@@H]1CCCN1C1CC2(CCN(c3ccc(C(=O)NS(=O)(=O)c4cc5c(c([N+](=O)[O-])c4)N[C@@H]([C@H]4CC[C@](C)(O)CC4)CO5)c(Oc4cc5c(F)c[nH]c5nc4O[C@@H]4CCOC4)c3)CC2)C1 (single isomer, unassigned) [Example D-220, 2-((3-fluoro-6-(((R)-tetrahydrofuran-3-yl)oxy)-1H-pyrrolo[2,3-b]pyridin-5-yl)oxy)-N-((S)-3-((1r,4S)-4-hydroxy-4-methylcyclohexyl)-5-nitro-3,4-dihydro-2H-benzo [b][1,4]oxazin-7-yl)sulfonyl)-4-(2-((R or S)-2-(2-isopropylphenyl)pyrrolidin-1-yl)-7-azaspiro[3.5]nonan-7-yl)benzamide] | 1 nM
CC(C)c1ccccc1[C@@H]1CCCN1C1CC2(CCN(c3ccc(C(=O)NS(=O)(=O)c4cc5c(c([N+](=O)[O-])c4)N[C@@H]([C@H]4CC[C@](C)(O)CC4)CO5)c(Oc4cc5cc[nH]c5nc4OC[C@H](C)O)c3)CC2)C1 (single isomer, unassigned) [Example D-70, N-(((S)-3-((1r,4S)-4-hydroxy-4-methylcyclohexyl)-5-nitro-3,4-dihydro-2H-benzo[b][1,4]oxazin-7-yl)sulfonyl)-2-((6-((S)-2-hydroxypropoxy)-1H-pyrrolo[2,3-b]pyridin-5-yl)oxy)-4-(2-((R or S)-2-(2-isopropylphenyl)pyrrolidin-1-yl)-7-azaspiro[3.5]nonan-7-yl)benzamide] | 1 nM
COc1nc2[nH]ccc2cc1Oc1cc(N2CCC3(CC2)CN([C@H]2CCC[C@H]2c2ccccc2C(C)C)C3)ccc1C(=O)NS(=O)(=O)c1ccc(NC[C@H]2CC[C@](C)(O)CC2)c([N+](=O)[O-])c1 (single isomer, unassigned) [Example D-91, N-((4-((((1r,4r)-4-hydroxy-4-methylcyclohexyl)methyl)amino)-3-nitrophenyl)sulfonyl)-4-(2-((1S,2S or 1R,2R)-2-(2-isopropylphenyl)cyclopentyl)-2,7-diazaspiro[3.5]nonan-7-yl)-2-((6-methoxy-177-pyrrolo [2,3-b]pyridin-5-yl)oxy)benzamide] | 1 nM
CC(C)c1ccccc1[C@@H]1CS(=O)(=O)CCN1C1CC2(CCN(c3ccc(C(=O)NS(=O)(=O)c4cc5c(c([N+](=O)[O-])c4)N[C@@H]([C@H]4CC[C@](C)(O)CC4)CO5)c(Oc4cnc5[nH]cc(F)c5c4)c3)CC2)C1 (single isomer, unassigned) [Example D-79, 2-((3-fluoro-1H-pyrrolo[2,3-b]pyridin-5-yl)oxy)-N-(((S)-3-((1r,4S)-4-hydroxy-4-methylcyclohexyl)-5-nitro-3,4-dihydro-2H-benzo[b] [1,4]oxazin-7-yl)sulfonyl)-4-(2-((R or S)-3-(2-isopropylphenyl)-1,1-dioxidothiomorpholino)-7-azaspiro [3.5]nonan-7-yl)benzamide] | 1 nM
CO[C@H]1CC[C@@H]([C@@H]2COc3cc(S(=O)(=O)NC(=O)c4ccc(N5CCC6(CC5)CC(N5CCC[C@H]5c5ccccc5C(C)C)C6)cc4Oc4cnc5[nH]cc(F)c5c4)cc([N+](=O)[O-])c3N2)CC1 (single isomer, unassigned) [Example D-46, 2-((3-fluoro-1H-pyrrolo[2,3-b]pyridin-5-yl)oxy)-4-(2-((R or S)-2-(2-isopropylphenyl)pyrrolidin-1-yl)-7-azaspiro[3.5]nonan-7-yl)-N-(((R)-3-((1s,4S)-4-methoxycyclohexyl)-5-nitro-3,4-dihydro-2H-benzo[b][1,4]oxazin-7-yl)sulfonyl)benzamide] | 1 nM
CC(C)c1ccccc1[C@@H]1CCCN1C1CC2(CCN(c3ccc(C(=O)NS(=O)(=O)c4cc5c(c([N+](=O)[O-])c4)N[C@@H]([C@H]4CC[C@](C)(O)CC4)CO5)c(Oc4cc5cc[nH]c5nc4N4CCOCC4)c3)CC2)C1 (single isomer, unassigned) [Example D-57, N-(((S)-3-((1r,4S)-4-hydroxy-4-methylcyclohexyl)-5-nitro-3,4-dihydro-2H-benzo[b][1,4]oxazin-7-yl)sulfonyl)-4-(2-((R or S)-2-(2-isopropylphenyl)pyrrolidin-1-yl)-7-azaspiro[3.5]nonan-7-yl)-2-((6-morpholino-1H-pyrrolo [2,3-b]pyridin-5-yl)oxy)benzamide] | 1 nM
CC(C)c1ccccc1[C@H]1CCCN1C1CC2(CCN(c3ccc(C(=O)NS(=O)(=O)c4cc5c(c([N+](=O)[O-])c4)NC([C@H]4COCCO4)CO5)c(Oc4cnc5[nH]cc(F)c5c4)c3)CC2)C1 (single isomer, unassigned) [Example D-50a, N-(((R or S)-3-((S)-1,4-dioxan-2-yl)-5-nitro-3,4-dihydro-2H-benzo[b][1,4]oxazin-7-yl)sulfonyl)-2-((3-fluoro-1H-pyrrolo[2,3-b]pyridin-5-yl)oxy)-4-(2-((R or S)-2-(2-isopropylphenyl)pyrrolidin-1-yl)-7-azaspiro[3.5]nonan-7-yl)benzamide] | 1 nM

Same assay, conditions: Homo sapiens, Toledo, read-out: Toledo IC50 (nM)

SMILES | IC50
CC(C)c1ccccc1[C@@H]1COCCN1C1CC2(CCN(c3ccc(C(=O)NS(=O)(=O)c4ccc(NC[C@H]5CC[C@](C)(O)CC5)c([N+](=O)[O-])n4)c(Oc4cnc5[nH]ccc5c4)c3)CC2)C1 (single isomer, unassigned) [Example C-1, 2-((1H-pyrrolo[2,3-b]pyridin-5-yl)oxy)-N-((5-((((1r,4r)-4-hydroxy-4-methylcyclohexyl)methyl)amino)-6-nitropyridin-2-yl)sulfonyl)-4-(2-((R or S)-3-(2-isopropylphenyl)morpholino)-7-azaspiro[3.5]nonan-7-yl) benzamide] | 1 nM

Same assay, conditions: Toledo cells, MTS, read-out: Toledo IC50

SMILES | IC50
CC(C)c1ccccc1[C@H]1CCCN1C1CC2(CCN(c3ccc(C(=O)NS(=O)(=O)c4cc5c(c([N+](=O)[O-])c4)NC([C@H]4COCCO4)CO5)c(Oc4cnc5[nH]cc(F)c5c4)c3)CC2)C1 (single isomer, unassigned) [Example D-50b, N-(((R or S)-3-((S)-1,4-dioxan-2-yl)-5-nitro-3,4-dihydro-2H-benzo[b][1,4]oxazin-7-yl)sulfonyl)-2-((3-fluoro-1H-pyrrolo[2,3-b]pyridin-5-yl)oxy)-4-(2-((R or S)-2-(2-isopropylphenyl)pyrrolidin-1-yl)-7-azaspiro[3.5]nonan-7-yl)benzamide] | 1 nM
CC(C)c1ccccc1[C@H]1CCCN1C1CC2(CCN(c3ccc(C(=O)NS(=O)(=O)c4cc5c(c([N+](=O)[O-])c4)NC([C@@H]4COCCO4)CO5)c(Oc4cnc5[nH]cc(F)c5c4)c3)CC2)C1 (single isomer, unassigned) [Example D-49b, N-(((R or S)-3-((R)-1,4-dioxan-2-yl)-5-nitro-3,4-dihydro-2H-benzo[b][1,4]oxazin-7-yl)sulfonyl)-2-((3-fluoro-1H-pyrrolo[2,3-b]pyridin-5-yl)oxy)-4-(2-((R or S)-2-(2-isopropylphenyl)pyrrolidin-1-yl)-7-azaspiro[3.5]nonan-7-yl)benzamide] | 1 nM
